# Like-named read-outs stand apart in the source and are kept apart here.
# Assays:
# Ros1 enzyme = molecular target: T1, Ros1 enzyme (Homo sapiens, UniProt P08922); experiment: Ros1 enzymatic assay; format: biochemical; conditions: Ros1 enzymatic assay; read-out: ROS1 pIC50 (converted)
# T1 construct: 0.5 μg/ml Ros1 enzyme
# Method in brief: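 Radiometric proximity read-out: 33P incorporated into IRS-Tide captured on streptavidin imaging beads and imaged on LEADseeker. Phosphorylation ran 120 min at RT with 20 μM ATP (substrate-mix level) in Tris pH7.5/MgCl2/EGTA/Tween buffer; EDTA stop.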
# [1] = tested on: HCC78 non-small cell lung cancer cells; experiment: HCC78 cell proliferation assay; format: cell-based; conditions: for EC50: Homo sapiens, HCC78, 96 h, read-out: HCC-78 PROL pEC50 (converted)
# Method in brief: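 HCC78 NSCLC cells (~1000/well) in RPMI-1640 with 10% FBS were treated 24 h after seeding and exposed to compound for 4 days at 37 °C. Viability was read by MTT, with absorbance at 538 nm after DMSO/glycine solubilization.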
# [2] = tested on: Ba/F3 cells containing Ros1 wild-type protein + IL-3; experiment: Ba/F3-Ros1 cell proliferation counter-screen, wild-type protein in the presence of 10 ng/ml murine IL-3; format: cell-based; conditions: Mus musculus, BaF3, 24 h, read-out: BaF3-ROS1 + IL3 pIC50 (converted)
# Method in brief: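 IL-3 rescue counter-screen: WT Ros1 Ba/F3, 10 ng/ml mIL-3, 24 h compound exposure, 37 °C/5% CO2; Alamar Blue added 4 h, RFU ex540/em590.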
# [3] = molecular target: T2, Ba/F3 cells containing Ros1 wild-type protein (Homo sapiens, UniProt P08922, cells depend on it, form not given); experiment: Ba/F3-Ros1 cell proliferation assay, wild-type Ros1; format: cell-based, murine; conditions: without IL-3
# T2 construct: The background only speaks of 'a number of different unrelated proteins' and names SLC34A2-ROS1 for HCC78 cells
# Method in brief: (§1)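 Ba/F3 cells expressing wild-type, L2026M or G2032R Ros1 (20000 per well) were incubated with DMSO-solubilized compounds in phenol red-free RPMI-1640 with 10% FBS and 2 mM L-glutamine at 37 °C, 5% CO2 for 24 hours. Viability was then read by Alamar Blue fluorescence (ex 540/em 590 nm) after 4 h.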
# [4] = molecular target: Ba/F3 cells containing Ros1 with a mutation at the gatekeeper residue (L2026M) (Homo sapiens, UniProt P08922, L2026M, cells depend on it, form not given); experiment: Ba/F3-Ros1 cell proliferation assay, L2026M gatekeeper mutant; format: cell-based, murine; conditions: without IL-3
# Method in brief: as §1
# [5] = counter-screen, wild-type, 10 ng/ml murine IL-3
# T2 sequence (P08922 whole entry, stated change not applied): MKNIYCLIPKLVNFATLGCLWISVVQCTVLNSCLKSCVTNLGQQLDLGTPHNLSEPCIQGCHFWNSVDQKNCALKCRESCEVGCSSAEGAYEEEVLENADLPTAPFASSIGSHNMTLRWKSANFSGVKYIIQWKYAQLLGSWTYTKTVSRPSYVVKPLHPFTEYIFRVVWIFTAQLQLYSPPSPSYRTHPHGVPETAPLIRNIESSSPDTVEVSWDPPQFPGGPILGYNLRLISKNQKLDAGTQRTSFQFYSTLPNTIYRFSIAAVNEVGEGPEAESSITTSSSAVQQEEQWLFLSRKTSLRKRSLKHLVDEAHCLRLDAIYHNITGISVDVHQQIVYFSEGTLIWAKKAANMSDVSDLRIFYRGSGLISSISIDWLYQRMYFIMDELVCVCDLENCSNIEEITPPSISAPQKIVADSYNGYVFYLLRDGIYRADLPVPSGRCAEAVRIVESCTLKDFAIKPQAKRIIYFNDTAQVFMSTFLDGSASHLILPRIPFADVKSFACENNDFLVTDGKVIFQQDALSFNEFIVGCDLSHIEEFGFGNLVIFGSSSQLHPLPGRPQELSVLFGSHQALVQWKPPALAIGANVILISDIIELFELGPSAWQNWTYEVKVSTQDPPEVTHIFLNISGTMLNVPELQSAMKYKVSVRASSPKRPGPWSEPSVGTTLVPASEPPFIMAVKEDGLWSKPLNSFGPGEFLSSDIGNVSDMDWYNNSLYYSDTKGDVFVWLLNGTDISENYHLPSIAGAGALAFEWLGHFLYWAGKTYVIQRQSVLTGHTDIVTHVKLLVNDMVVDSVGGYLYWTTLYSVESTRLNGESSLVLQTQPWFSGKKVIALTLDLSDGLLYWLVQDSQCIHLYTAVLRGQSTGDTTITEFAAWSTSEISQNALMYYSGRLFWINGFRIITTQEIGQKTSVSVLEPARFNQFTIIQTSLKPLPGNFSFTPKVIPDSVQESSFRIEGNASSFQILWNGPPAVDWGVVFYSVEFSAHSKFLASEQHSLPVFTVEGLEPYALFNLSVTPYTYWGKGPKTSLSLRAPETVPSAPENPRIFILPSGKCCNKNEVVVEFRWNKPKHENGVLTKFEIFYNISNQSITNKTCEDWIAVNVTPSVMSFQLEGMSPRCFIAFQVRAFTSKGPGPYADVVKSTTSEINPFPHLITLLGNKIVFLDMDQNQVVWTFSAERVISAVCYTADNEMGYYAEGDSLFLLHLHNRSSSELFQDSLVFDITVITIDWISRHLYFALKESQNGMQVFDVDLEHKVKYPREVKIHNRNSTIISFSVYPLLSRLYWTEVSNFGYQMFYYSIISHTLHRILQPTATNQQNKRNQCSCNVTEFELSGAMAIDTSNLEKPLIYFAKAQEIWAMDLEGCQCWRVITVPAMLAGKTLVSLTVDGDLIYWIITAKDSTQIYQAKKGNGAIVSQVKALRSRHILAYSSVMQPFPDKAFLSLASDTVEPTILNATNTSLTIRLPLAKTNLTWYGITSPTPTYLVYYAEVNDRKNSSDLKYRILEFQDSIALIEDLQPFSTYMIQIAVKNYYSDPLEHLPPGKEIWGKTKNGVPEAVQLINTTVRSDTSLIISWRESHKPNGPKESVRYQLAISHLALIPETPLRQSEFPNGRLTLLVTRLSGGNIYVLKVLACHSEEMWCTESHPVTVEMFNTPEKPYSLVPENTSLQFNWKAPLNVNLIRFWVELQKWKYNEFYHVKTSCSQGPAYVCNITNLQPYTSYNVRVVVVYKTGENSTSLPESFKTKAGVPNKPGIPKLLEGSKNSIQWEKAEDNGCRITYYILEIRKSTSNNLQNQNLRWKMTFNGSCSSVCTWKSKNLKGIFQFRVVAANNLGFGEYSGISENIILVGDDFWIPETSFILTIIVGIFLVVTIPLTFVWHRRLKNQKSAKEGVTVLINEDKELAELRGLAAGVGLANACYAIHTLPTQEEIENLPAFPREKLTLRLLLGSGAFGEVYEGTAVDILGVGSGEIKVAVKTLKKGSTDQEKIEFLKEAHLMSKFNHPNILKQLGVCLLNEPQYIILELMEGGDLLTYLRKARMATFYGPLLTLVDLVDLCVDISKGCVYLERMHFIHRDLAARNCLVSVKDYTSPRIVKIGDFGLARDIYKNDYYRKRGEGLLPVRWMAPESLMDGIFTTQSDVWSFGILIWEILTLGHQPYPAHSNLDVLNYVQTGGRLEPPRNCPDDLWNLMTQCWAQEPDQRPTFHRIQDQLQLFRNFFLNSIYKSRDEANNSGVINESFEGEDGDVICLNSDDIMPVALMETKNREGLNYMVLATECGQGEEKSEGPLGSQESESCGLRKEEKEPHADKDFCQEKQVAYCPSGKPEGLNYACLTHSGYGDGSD
# T1 sequence (P08922 28-2347): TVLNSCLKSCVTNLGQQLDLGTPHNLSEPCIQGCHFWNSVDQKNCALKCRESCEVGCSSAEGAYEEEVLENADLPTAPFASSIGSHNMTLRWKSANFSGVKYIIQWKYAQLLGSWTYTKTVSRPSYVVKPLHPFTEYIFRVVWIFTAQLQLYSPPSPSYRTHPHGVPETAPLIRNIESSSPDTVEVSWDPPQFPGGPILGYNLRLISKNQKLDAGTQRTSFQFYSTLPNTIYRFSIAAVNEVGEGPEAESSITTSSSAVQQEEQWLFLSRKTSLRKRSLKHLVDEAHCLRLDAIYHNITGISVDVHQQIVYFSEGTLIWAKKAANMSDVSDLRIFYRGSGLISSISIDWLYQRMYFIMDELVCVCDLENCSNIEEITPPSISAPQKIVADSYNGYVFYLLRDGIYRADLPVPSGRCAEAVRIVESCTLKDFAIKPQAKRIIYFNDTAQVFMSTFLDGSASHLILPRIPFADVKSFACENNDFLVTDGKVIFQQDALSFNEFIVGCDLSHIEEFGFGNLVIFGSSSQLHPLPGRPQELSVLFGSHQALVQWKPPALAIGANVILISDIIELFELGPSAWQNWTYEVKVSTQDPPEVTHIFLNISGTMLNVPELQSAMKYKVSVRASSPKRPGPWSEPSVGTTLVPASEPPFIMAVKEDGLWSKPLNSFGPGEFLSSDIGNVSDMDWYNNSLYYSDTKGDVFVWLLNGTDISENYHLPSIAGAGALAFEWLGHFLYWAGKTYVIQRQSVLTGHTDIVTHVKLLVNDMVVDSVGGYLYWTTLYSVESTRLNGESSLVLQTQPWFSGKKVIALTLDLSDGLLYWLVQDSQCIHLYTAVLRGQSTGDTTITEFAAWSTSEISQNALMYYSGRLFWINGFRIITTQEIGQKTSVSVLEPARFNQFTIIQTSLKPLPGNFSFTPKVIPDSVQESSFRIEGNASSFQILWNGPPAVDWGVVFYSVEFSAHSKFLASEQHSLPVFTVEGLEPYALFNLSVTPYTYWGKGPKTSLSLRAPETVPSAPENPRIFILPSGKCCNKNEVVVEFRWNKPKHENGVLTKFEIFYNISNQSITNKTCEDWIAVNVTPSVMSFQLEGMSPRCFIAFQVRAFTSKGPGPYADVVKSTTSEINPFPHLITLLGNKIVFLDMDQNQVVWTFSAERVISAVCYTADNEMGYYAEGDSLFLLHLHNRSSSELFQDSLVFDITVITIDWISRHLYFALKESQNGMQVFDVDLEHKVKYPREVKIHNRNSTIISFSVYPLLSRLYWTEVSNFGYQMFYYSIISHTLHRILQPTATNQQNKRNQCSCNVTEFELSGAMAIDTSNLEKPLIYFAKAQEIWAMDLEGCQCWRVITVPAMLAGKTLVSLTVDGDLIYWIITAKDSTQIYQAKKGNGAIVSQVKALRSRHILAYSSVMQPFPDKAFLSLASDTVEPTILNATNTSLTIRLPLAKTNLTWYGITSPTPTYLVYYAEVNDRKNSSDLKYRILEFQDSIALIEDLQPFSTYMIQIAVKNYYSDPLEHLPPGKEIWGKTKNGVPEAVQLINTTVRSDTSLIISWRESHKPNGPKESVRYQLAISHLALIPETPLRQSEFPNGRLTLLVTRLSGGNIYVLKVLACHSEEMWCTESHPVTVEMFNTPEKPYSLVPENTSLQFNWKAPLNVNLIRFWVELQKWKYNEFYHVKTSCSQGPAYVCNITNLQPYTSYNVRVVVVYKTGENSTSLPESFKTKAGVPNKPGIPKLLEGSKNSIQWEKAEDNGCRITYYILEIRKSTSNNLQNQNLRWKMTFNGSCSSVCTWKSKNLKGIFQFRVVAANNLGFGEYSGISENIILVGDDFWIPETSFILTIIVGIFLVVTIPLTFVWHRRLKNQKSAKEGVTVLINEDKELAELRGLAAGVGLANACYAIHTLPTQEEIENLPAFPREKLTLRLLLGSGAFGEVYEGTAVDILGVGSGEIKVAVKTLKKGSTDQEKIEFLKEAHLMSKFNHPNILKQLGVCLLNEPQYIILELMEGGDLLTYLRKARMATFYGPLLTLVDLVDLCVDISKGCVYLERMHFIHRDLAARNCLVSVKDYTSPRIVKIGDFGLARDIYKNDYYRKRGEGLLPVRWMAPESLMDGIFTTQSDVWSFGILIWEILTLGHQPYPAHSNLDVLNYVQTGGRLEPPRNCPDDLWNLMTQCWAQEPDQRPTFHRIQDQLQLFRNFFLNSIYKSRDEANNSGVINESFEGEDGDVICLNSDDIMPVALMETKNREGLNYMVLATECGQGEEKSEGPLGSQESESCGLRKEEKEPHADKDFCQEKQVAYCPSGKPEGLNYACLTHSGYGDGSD
# Ba/F3 cells containing Ros1 with a mutation at the gatekeeper residue (L2026M), sequence (P08922 whole entry L2026M, form open): as the sequence (P08922 whole entry, stated change not applied) above, with L2026M counted along it
"EC50 ([1]; HCC78 cells, 4 days, MTT)","HCC-78 PROL pEC50 ([1]; HCC78 cells, 4 days, MTT)",Structure (SMILES),IC50 (Ros1 enzyme),EC50 [1],CC50 [2],BaF3-ROS1-IL3 pIC50 [3],Ba/F3 Ros1 L2026M (-IL-3) pIC50 [4],melting point,"CC50 [2, 5]"
–,–,Cc1ccc(COc2ccc(-c3c(-c4ccncc4)nn4c3C(=O)NCC4)cc2)cc1 [Compound 105],126 nM,158 nM,> 10000 nM,7.0,6.6,259 °C,–
–,–,CCC(C)c1ccc(COc2ccc(-c3c(-c4ccncc4)nn4c3C(=O)N(CCO)CC4)cc2)cc1 (stereo not drawn) [Compound 107],20 nM,79.4 nM,> 10000 nM,7.7,7.4,163 °C,–
–,–,CC(C)Cc1ccc(COc2ccc(-c3c(-c4ccncc4)nn4c3C(=O)N(CCO)CC4)cc2)cc1 [Compound 109],100 nM,398 nM,> 10000 nM,7.1,7.2,155 °C,–
–,–,CC(C)(O)c1ccc(COc2ccc(-c3c(-c4ccncc4)nn4c3C(=O)N(CCO)CC4)cc2)cc1 [Compound 115],1260 nM,1580 nM,> 10000 nM,6.3,<5,193 °C,–
–,–,O=C1c2c(-c3ccc(OCc4ccc(OC(F)(F)F)cc4)cc3)c(-c3ccncc3)nn2CCN1CCO [Compound 117],126 nM,251 nM,> 10000 nM,7.0,6.9,134 °C,–
–,–,CC(C)(C#N)c1ccc(COc2ccc(-c3c(-c4ccncc4)nn4c3C(=O)N(CCO)CC4)cc2)cc1 [Compound 122],126 nM,63.1 nM,> 10000 nM,6.9,7.1,199 °C,–
–,–,N#CC1(c2ccc(COc3ccc(-c4c(-c5ccncc5)nn5c4C(=O)NCC5)cc3)cc2)CC1 [Compound 123],39.8 nM,398 nM,> 10000 nM,7.4,7.1,260 °C,–
–,–,COCC(C)(C)c1ccc(COc2ccc(-c3c(-c4ccncc4)nn4c3C(=O)NCC4)cc2)cc1 [Compound 126],200 nM,1260 nM,> 10000 nM,6.9,6.6,212 °C,–
–,–,O=C1c2c(-c3ccc(OCc4ccc(C5CC5)cc4)cc3)c(-c3ccncc3)nn2CCN1CCO [Compound 129],63.1 nM,100 nM,> 10000 nM,7.4,7.0,194 °C,–
200 nM,–,CC(O)CN1CCn2nc(-c3ccncc3)c(-c3ccc(OCc4ccc(C5CC5)cc4)cc3)c2C1=O (stereo not drawn) [Compound 134],79.4 nM,–,–,7.3,7.0,196 °C,> 10000 nM
–,–,O=C1c2c(-c3ccc(OCc4ccc(C5CC5)cc4F)cc3)c(-c3ccncc3)nn2CCN1CCO [Compound 136],63.1 nM,316 nM,> 10000 nM,7.1,6.6,183 °C,–
–,–,O=C1c2c(-c3ccc(OCc4ccc(C5CC5)c(F)c4)cc3)c(-c3ccncc3)nn2CCN1CCO [Compound 137],126 nM,398 nM,> 10000 nM,6.8,6.4,185 °C,–
–,–,O=C1c2c(-c3ccc(OCc4ccc(C5CC5)nc4)cc3)c(-c3ccncc3)nn2CCN1CCO [Compound 139],126 nM,100 nM,> 10000 nM,6.8,6.0,97 °C,–
–,5.0,CC(C)c1ccc(C(C)Oc2ccc(-c3c(-c4ccncc4)nn4c3C(=O)N(CCO)CC4)cc2)cc1 (stereo not drawn) [Compound 144],1260 nM,–,–,6.3,5.7,148 °C,> 10000 nM
–,–,CC(C)c1ccc(C(CN)Oc2ccc(-c3c(-c4ccncc4)nn4c3C(=O)NCC4)cc2)cc1 (stereo not drawn) [Compound 147],3980 nM,3980 nM,3980 nM,5.4,6.7,178 °C,–
–,–,CC(C)c1ccc(CC(=O)c2ccc(-c3c(-c4ccncc4)nn4c3C(=O)NCC4)cc2)cc1 [Compound 148],6310 nM,1580 nM,> 10000 nM,5.5,5.9,259 °C,–
–,–,CC(C)c1ccc(COc2ccc(-c3c(-c4ccncc4F)nn4c3C(=O)NCC4)c(F)c2)cc1 [Compound 152],10 nM,63.1 nM,> 10000 nM,8.0,8.1,262 °C,–
–,–,CC(C)c1ccc(COc2ccc(-c3c(-c4ccncc4C#N)nn4c3C(=O)NCC4)cc2)cc1 [Compound 153],39.8 nM,316 nM,> 10000 nM,7.5,6.8,225 °C,–
–,–,CC(C)c1ccc(COc2ccc(-c3c(-c4ccncc4Cl)nn4c3C(=O)NCC4)cc2)cc1 [Compound 154],100 nM,316 nM,> 10000 nM,6.9,7.1,207 °C,–
–,–,CC(C)c1ccc(COc2ccc(-c3c(-c4ccnc5[nH]ccc45)nn4c3C(=O)NCC4)cc2)cc1 [Compound 155],31.6 nM,79.4 nM,> 10000 nM,7.8,7.5,266 °C,–
20 nM,–,CC(C)c1ccc(COc2ccc(-c3c(-c4ccnc5[nH]ccc45)nn4c3C(=O)N(CCO)CC4)cc2)cc1 [Compound 156],63.1 nM,–,–,8.0,7.0,219 °C,> 10000 nM
316 nM,–,CC(C)c1ccc(COc2ccc(-c3c(-c4ccncn4)nn4c3C(=O)N(CC(O)CO)CC4)cc2)cc1 (stereo not drawn) [Compound 161],50.1 nM,–,–,7.1,6.7,209 °C,> 10000 nM
–,–,O=C1c2c(-c3ccc(OCc4ccc(C5CC5)cc4)cc3)c(-c3ccncn3)nn2CCN1CCO [Compound 167],126 nM,501 nM,> 10000 nM,7.2,6.2,170 °C,–
–,–,CC(C)c1ccc(COc2ccc(-c3c(-c4ccncc4)nn4c3CN(CC(=O)NCCO)CC4)cc2)cc1 [Compound 175],100 nM,398 nM,5010 nM,6.9,6.8,189 °C,–
79.4 nM,–,CC(C)c1ccc(COc2ccc(-c3c(-c4ccncc4)nn4c3CN(CCO)CC4)cc2)cc1 [Compound 176],158 nM,–,–,6.9,7.1,150 °C,> 10000 nM
398 nM,–,CC(C)c1ccc(COc2ccc(-c3c(-c4ccncc4)nn4c3CN(CC(=O)N(C)C)CC4)cc2)cc1 [Compound 177],200 nM,–,–,6.9,6.6,95 °C,> 10000 nM
501 nM,–,CC(O)CN1CCn2nc(-c3ccncc3)c(-c3ccc(OCc4ccc(C(C)C)cc4)cc3)c2C1 (stereo not drawn) [Compound 191],158 nM,–,–,6.9,7.0,148 °C,> 10000 nM
–,–,CC(C)c1ccc(COc2ccc(-c3c(-c4ccncc4)nn4c3C(=O)NC(CO)C4)cc2)cc1 (stereo not drawn) [Compound 193],79.4 nM,200 nM,> 10000 nM,7.3,6.3,254 °C,–

# — patent publication US10280170B2, “Substituted 4,5,6,7-tetrahydro-pyrazolo[1,5-a]pyrazine derivatives and 5,6,7,8-tetrahydro-4H-pyrazolo[1,5-a][1,4]diazepine derivatives as Ros1 inhibitors” (Janssen Pharmaceutica NV, priority 2014, dated 2019)
